{"source": "paper PMC11696576", "about": "“Next generation thiazolyl ketone inhibitors of cytosolic phospholipase A2 α for targeted cancer therapy” (Nature Communications, 2025)", "key": {"Jurkat E6.1 cells [1]": {"system": "Jurkat E6.1 cells", "test": "cell viability, CTG assay, Jurkat E6.1", "format": "cell-based, human", "details": "for viability at 0.125 µM: Jurkat E6.1, 0.125 µM; for cell viability (0 µM = 100): listed as AVX420; for cell viability (Control = 100): Jurkat cells", "from_the_text": "Data are the mean ± stdev of 3 biological replicates. […] Data are the mean ± stdev of 3 biological replicates.\nBjørn Tore Gjertsen (University of Bergen, Norway). […] The cell lines were not authenticated."}, "Jurkat E6.1 cells [2]": {"system": "Jurkat E6.1 cells", "test": "cell death, PI exclusion and flow cytometry, time course (Figure S9b)", "format": "cell-based, human", "parameters": "unit not given here", "details": "replicates, listed as AVX420"}}, "note": "Where “and” joins values, the source holds several entries; their conditions need not be identical. Equal values may be shown once. Read-outs that look alike come from different tables or passages of the source."}
{"smiles": "CCCCCCCOc1ccc(OCC(=O)c2nc(C(=O)OC)cs2)cc1", "note": "[GK420]", "values": [{"measurement": "viability at 0.007 µM", "setting": "Jurkat E6.1 cells [1]; Homo sapiens, Jurkat E6.1, 24 h, Jurkat E6.1, 0.007 µM, 24H, read-out: cell viability (0 µM = 100)", "value": 102, "unit": "%"}, {"measurement": "viability at 0.015 µM", "setting": "Jurkat E6.1 cells [1]; Homo sapiens, Jurkat E6.1, 24 h, Jurkat E6.1, 0.015 µM, 24H, read-out: cell viability (0 µM = 100)", "value": 96, "unit": "%"}, {"measurement": "viability at 0.031 µM", "setting": "Jurkat E6.1 cells [1]; Homo sapiens, Jurkat E6.1, 24 h, Jurkat E6.1, 0.031 µM, 24H, read-out: cell viability (0 µM = 100)", "value": 99, "unit": "%"}, {"measurement": "viability at 0.062 µM", "setting": "Jurkat E6.1 cells [1]; Homo sapiens, Jurkat E6.1, 24 h, Jurkat E6.1, 0.062 µM, 24H, read-out: cell viability (0 µM = 100)", "value": 103, "unit": "%"}, {"measurement": "viability at 0.125 µM", "setting": "Jurkat E6.1 cells [1]; Homo sapiens, Jurkat E6.1, 24 h, 24H, read-out: cell viability (0 µM = 100)", "value": 101, "unit": "%"}, {"measurement": "viability at 0.25 µM", "setting": "Jurkat E6.1 cells [1]; Homo sapiens, Jurkat E6.1, 24 h, Jurkat E6.1, 0.25 µM, 24H, read-out: cell viability (0 µM = 100)", "value": 90, "unit": "%"}, {"measurement": "viability at 0.5 µM", "setting": "Jurkat E6.1 cells [1]; Homo sapiens, Jurkat E6.1, 24 h, Jurkat E6.1, 0.5 µM, 24H, read-out: cell viability (0 µM = 100)", "value": 51, "unit": "%"}, {"measurement": "viability at 1 µM", "setting": "Jurkat E6.1 cells [1]; Homo sapiens, Jurkat E6.1, 24 h, Jurkat E6.1, 1 µM, 24H, read-out: cell viability (0 µM = 100)", "value": 28, "unit": "%"}, {"measurement": "viability at 2 µM", "setting": "Jurkat E6.1 cells [1]; Homo sapiens, Jurkat E6.1, 24 h, Jurkat E6.1, 2 µM, 24H, read-out: cell viability (0 µM = 100)", "value": 16, "unit": "%"}, {"measurement": "viability at 0.007 µM", "setting": "Jurkat E6.1 cells [1]; Homo sapiens, Jurkat E6.1, 48 h, Jurkat E6.1, 0.007 µM, 48H, read-out: cell viability (0 µM = 100)", "value": 101, "unit": "%"}, {"measurement": "viability at 0.015 µM", "setting": "Jurkat E6.1 cells [1]; Homo sapiens, Jurkat E6.1, 48 h, Jurkat E6.1, 0.015 µM, 48H, read-out: cell viability (0 µM = 100)", "value": 99, "unit": "%"}, {"measurement": "viability at 0.031 µM", "setting": "Jurkat E6.1 cells [1]; Homo sapiens, Jurkat E6.1, 48 h, Jurkat E6.1, 0.031 µM, 48H, read-out: cell viability (0 µM = 100)", "value": 100, "unit": "%"}, {"measurement": "viability at 0.062 µM", "setting": "Jurkat E6.1 cells [1]; Homo sapiens, Jurkat E6.1, 48 h, Jurkat E6.1, 0.062 µM, 48H, read-out: cell viability (0 µM = 100)", "value": 104, "unit": "%"}, {"measurement": "viability at 0.125 µM", "setting": "Jurkat E6.1 cells [1]; Homo sapiens, Jurkat E6.1, 48 h, 48H, read-out: cell viability (0 µM = 100)", "value": 104, "unit": "%"}, {"measurement": "viability at 0.25 µM", "setting": "Jurkat E6.1 cells [1]; Homo sapiens, Jurkat E6.1, 48 h, Jurkat E6.1, 0.25 µM, 48H, read-out: cell viability (0 µM = 100)", "value": 79, "unit": "%"}, {"measurement": "viability at 0.5 µM", "setting": "Jurkat E6.1 cells [1]; Homo sapiens, Jurkat E6.1, 48 h, Jurkat E6.1, 0.5 µM, 48H, read-out: cell viability (0 µM = 100)", "value": 39, "unit": "%"}, {"measurement": "viability at 1 µM", "setting": "Jurkat E6.1 cells [1]; Homo sapiens, Jurkat E6.1, 48 h, Jurkat E6.1, 1 µM, 48H, read-out: cell viability (0 µM = 100)", "value": 16, "unit": "%"}, {"measurement": "viability at 2 µM", "setting": "Jurkat E6.1 cells [1]; Homo sapiens, Jurkat E6.1, 48 h, Jurkat E6.1, 2 µM, 48H, read-out: cell viability (0 µM = 100)", "value": 9, "unit": "%"}, {"measurement": "viability at 4 µM", "setting": "Jurkat E6.1 cells [1]; Homo sapiens, Jurkat E6.1, 48 h, Jurkat E6.1, 4 µM, 48H, read-out: cell viability (0 µM = 100)", "value": 5, "unit": "%"}, {"measurement": "viability at 0.007 µM", "setting": "Jurkat E6.1 cells [1]; Homo sapiens, Jurkat E6.1, 72 h, Jurkat E6.1, 0.007 µM, 72H, read-out: cell viability (0 µM = 100)", "value": 100, "unit": "%"}, {"measurement": "viability at 0.015 µM", "setting": "Jurkat E6.1 cells [1]; Homo sapiens, Jurkat E6.1, 72 h, Jurkat E6.1, 0.015 µM, 72H, read-out: cell viability (0 µM = 100)", "value": 97, "unit": "%"}, {"measurement": "viability at 0.031 µM", "setting": "Jurkat E6.1 cells [1]; Homo sapiens, Jurkat E6.1, 72 h, Jurkat E6.1, 0.031 µM, 72H, read-out: cell viability (0 µM = 100)", "value": 90, "unit": "%"}, {"measurement": "viability at 0.062 µM", "setting": "Jurkat E6.1 cells [1]; Homo sapiens, Jurkat E6.1, 72 h, Jurkat E6.1, 0.062 µM, 72H, read-out: cell viability (0 µM = 100)", "value": 87, "unit": "%"}, {"measurement": "viability at 0.125 µM", "setting": "Jurkat E6.1 cells [1]; Homo sapiens, Jurkat E6.1, 72 h, 72H, read-out: cell viability (0 µM = 100)", "value": 87, "unit": "%"}, {"measurement": "viability at 0.25 µM", "setting": "Jurkat E6.1 cells [1]; Homo sapiens, Jurkat E6.1, 72 h, Jurkat E6.1, 0.25 µM, 72H, read-out: cell viability (0 µM = 100)", "value": 76, "unit": "%"}, {"measurement": "viability at 0.5 µM", "setting": "Jurkat E6.1 cells [1]; Homo sapiens, Jurkat E6.1, 72 h, Jurkat E6.1, 0.5 µM, 72H, read-out: cell viability (0 µM = 100)", "value": 31, "unit": "%"}, {"measurement": "viability at 1 µM", "setting": "Jurkat E6.1 cells [1]; Homo sapiens, Jurkat E6.1, 72 h, Jurkat E6.1, 1 µM, 72H, read-out: cell viability (0 µM = 100)", "value": 10, "unit": "%"}, {"measurement": "viability at 0.5 µM", "setting": "Jurkat E6.1 cells [1]; Homo sapiens, Jurkat E6.1, Jurkat cells, 0.5 µM, VEH, read-out: cell viability (Control = 100)", "value": 50, "unit": "%"}, {"measurement": "viability at 1 µM", "setting": "Jurkat E6.1 cells [1]; Homo sapiens, Jurkat E6.1, Jurkat cells, 1 µM, VEH, read-out: cell viability (Control = 100)", "value": 34, "unit": "%"}, {"measurement": "cell viability (0 µM = 100)", "setting": "Jurkat E6.1 cells [1]; Jurkat E6.1, 0.007 µM, 24H", "value": "98 and 97"}, {"measurement": "cell viability (0 µM = 100)", "setting": "Jurkat E6.1 cells [1]; Jurkat E6.1, 0.007 µM, 48H", "value": "98 and 97"}, {"measurement": "cell viability (0 µM = 100)", "setting": "Jurkat E6.1 cells [1]; Jurkat E6.1, 0.007 µM, 72H", "value": 98}, {"measurement": "cell viability (0 µM = 100)", "setting": "Jurkat E6.1 cells [1]; Jurkat E6.1, 0.015 µM, 48H", "value": "98 and 97"}, {"measurement": "cell viability (0 µM = 100)", "setting": "Jurkat E6.1 cells [1]; Jurkat E6.1, 0.031 µM, 24H", "value": 95}, {"measurement": "cell viability (0 µM = 100)", "setting": "Jurkat E6.1 cells [1]; Jurkat E6.1, 0.031 µM, 48H", "value": 98}, {"measurement": "cell viability (0 µM = 100)", "setting": "Jurkat E6.1 cells [1]; Jurkat E6.1, 0.031 µM, 72H", "value": 95}, {"measurement": "cell viability (0 µM = 100)", "setting": "Jurkat E6.1 cells [1]; Jurkat E6.1, 0.062 µM, 24H", "value": 94}, {"measurement": "cell viability (0 µM = 100)", "setting": "Jurkat E6.1 cells [1]; Jurkat E6.1, 0.062 µM, 48H", "value": 93}, {"measurement": "cell viability (0 µM = 100)", "setting": "Jurkat E6.1 cells [1]; Jurkat E6.1, 0.062 µM, 72H", "value": 98}, {"measurement": "cell viability (0 µM = 100)", "setting": "Jurkat E6.1 cells [1]; Jurkat E6.1, 0.25 µM, 72H", "value": 61}, {"measurement": "cell viability (0 µM = 100)", "setting": "Jurkat E6.1 cells [1]; Jurkat E6.1, 0.5 µM, 24H", "value": "41 and 43"}, {"measurement": "cell viability (0 µM = 100)", "setting": "Jurkat E6.1 cells [1]; Jurkat E6.1, 0.5 µM, 72H", "value": "30 and 21"}, {"measurement": "cell viability (0 µM = 100)", "setting": "Jurkat E6.1 cells [1]; Jurkat E6.1, 1 µM, 24H", "value": "19 and 21"}, {"measurement": "cell viability (0 µM = 100)", "setting": "Jurkat E6.1 cells [1]; Jurkat E6.1, 1 µM, 48H", "value": "14 and 13"}, {"measurement": "cell viability (0 µM = 100)", "setting": "Jurkat E6.1 cells [1]; Jurkat E6.1, 1 µM, 72H", "value": 8}, {"measurement": "cell viability (0 µM = 100)", "setting": "Jurkat E6.1 cells [1]; Jurkat E6.1, 2 µM, 48H", "value": 7}, {"measurement": "cell viability (0 µM = 100)", "setting": "Jurkat E6.1 cells [1]; Jurkat E6.1, 4 µM, 48H", "value": 3}, {"measurement": "effect on viability", "setting": "Jurkat E6.1 cells [1]; Jurkat E6.1, CTG", "value": "strong dose-dependent effect"}, {"measurement": "cell viability (Control = 100)", "setting": "Jurkat E6.1 cells [1]; 0.5 µM, VEH, listed as AVX420, 0.5 µM", "value": "46 and 55"}, {"measurement": "cell viability (Control = 100)", "setting": "Jurkat E6.1 cells [1]; 1 µM, VEH, listed as AVX420, 1 µM", "value": 21}, {"measurement": "PI Negative (Figure S9b)", "setting": "Jurkat E6.1 cells [2]; 1h", "value": "92 and 90"}, {"measurement": "PI Positive (Figure S9b)", "setting": "Jurkat E6.1 cells [2]; 1h", "value": "8 and 10"}, {"measurement": "PI Negative (Figure S9b)", "setting": "Jurkat E6.1 cells [2]; 2h", "value": "88 and 92"}, {"measurement": "PI Positive (Figure S9b)", "setting": "Jurkat E6.1 cells [2]; 2h", "value": "12 and 8"}, {"measurement": "PI Negative (Figure S9b)", "setting": "Jurkat E6.1 cells [2]; 4h", "value": "94 and 93 and 92"}, {"measurement": "PI Positive (Figure S9b)", "setting": "Jurkat E6.1 cells [2]; 4h", "value": "6 and 7 and 8"}, {"measurement": "PI Negative (Figure S9b)", "setting": "Jurkat E6.1 cells [2]; 8h", "value": "91 (2×) and 87 and 88"}, {"measurement": "PI Positive (Figure S9b)", "setting": "Jurkat E6.1 cells [2]; 8h", "value": "9 (2×) and 13 and 12"}, {"measurement": "PI Negative (Figure S9b)", "setting": "Jurkat E6.1 cells [2]; 12h", "value": "80 and 83 and 82"}, {"measurement": "PI Positive (Figure S9b)", "setting": "Jurkat E6.1 cells [2]; 12h", "value": "20 and 17 and 18"}, {"measurement": "PI Negative (Figure S9b)", "setting": "Jurkat E6.1 cells [2]; 16h", "value": "70 and 75 and 71"}, {"measurement": "PI Positive (Figure S9b)", "setting": "Jurkat E6.1 cells [2]; 16h", "value": "30 and 25 and 29"}, {"measurement": "PI Negative (Figure S9b)", "setting": "Jurkat E6.1 cells [2]; 24h", "value": "65 and 67 and 73"}, {"measurement": "PI Positive (Figure S9b)", "setting": "Jurkat E6.1 cells [2]; 24h", "value": "35 and 33 and 27"}]}
